Laboratory results: patent US10052306B2 (LUC THERAPEUTICS, INC., priority 2013, dated 2018)
One block for each molecule: values may come before it.

Molecular target: NR1/NR2B (Homo sapiens (Human), UniProt Q05586+Q13224)
Assay: Cell assay: FDSS Ca2+ influx inhibition in HEK293 cells expressing NR1/NR2B;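 note: Fluo-8 Ca2+ signal read on Hamamatsu FDSS 6000 after glutamate, glycine and Ca2+ challenge following 10 min compound preincubation, end/baseline fluorescence ratio compared with MK801 control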
Conditions: Ca2+ influx
[1] = NR2B NAM IC50, HEK293 cells expressing NR1/NR2B
[2] = Binned Activity, HEK293 cells expressing NR1/NR2B, binned NR2B NAM IC50

Sequence of NR1/NR2B (Q13224 27-1484, other chains not shown): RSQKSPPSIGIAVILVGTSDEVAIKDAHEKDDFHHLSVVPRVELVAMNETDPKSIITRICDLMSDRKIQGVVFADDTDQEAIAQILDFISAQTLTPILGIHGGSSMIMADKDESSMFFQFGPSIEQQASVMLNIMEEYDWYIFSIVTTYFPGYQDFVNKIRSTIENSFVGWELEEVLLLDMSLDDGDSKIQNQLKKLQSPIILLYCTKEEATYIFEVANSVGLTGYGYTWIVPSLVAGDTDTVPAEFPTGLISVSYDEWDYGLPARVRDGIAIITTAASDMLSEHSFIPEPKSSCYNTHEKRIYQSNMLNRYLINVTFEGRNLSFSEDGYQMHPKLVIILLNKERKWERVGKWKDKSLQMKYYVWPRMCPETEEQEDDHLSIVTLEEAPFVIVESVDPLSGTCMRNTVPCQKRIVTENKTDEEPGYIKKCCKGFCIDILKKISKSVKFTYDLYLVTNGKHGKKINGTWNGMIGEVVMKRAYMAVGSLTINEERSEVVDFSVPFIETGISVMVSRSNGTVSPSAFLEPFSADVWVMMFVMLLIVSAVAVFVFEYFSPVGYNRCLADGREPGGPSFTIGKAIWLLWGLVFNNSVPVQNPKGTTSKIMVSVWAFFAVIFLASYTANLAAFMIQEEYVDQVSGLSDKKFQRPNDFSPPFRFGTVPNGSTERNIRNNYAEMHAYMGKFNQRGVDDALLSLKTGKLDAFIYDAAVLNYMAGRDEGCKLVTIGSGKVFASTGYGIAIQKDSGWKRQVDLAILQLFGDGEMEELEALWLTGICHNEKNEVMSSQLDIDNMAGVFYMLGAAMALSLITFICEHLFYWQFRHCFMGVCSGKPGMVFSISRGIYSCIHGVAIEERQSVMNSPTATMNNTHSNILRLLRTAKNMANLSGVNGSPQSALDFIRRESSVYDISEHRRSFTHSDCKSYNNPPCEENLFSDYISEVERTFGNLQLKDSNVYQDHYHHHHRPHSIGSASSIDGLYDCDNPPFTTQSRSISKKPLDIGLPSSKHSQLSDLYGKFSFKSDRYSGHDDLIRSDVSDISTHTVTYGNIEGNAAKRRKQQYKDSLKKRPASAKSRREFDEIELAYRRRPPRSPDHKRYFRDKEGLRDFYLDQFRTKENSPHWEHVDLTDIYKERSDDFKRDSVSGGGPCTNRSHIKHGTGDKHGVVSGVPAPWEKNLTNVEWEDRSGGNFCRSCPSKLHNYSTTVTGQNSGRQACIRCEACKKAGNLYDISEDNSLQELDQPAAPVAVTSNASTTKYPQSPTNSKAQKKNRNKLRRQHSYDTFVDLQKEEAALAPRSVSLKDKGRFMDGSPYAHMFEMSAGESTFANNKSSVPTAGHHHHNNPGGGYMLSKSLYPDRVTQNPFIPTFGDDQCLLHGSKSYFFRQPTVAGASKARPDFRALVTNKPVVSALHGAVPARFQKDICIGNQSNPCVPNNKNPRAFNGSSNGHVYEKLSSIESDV

Compound: Oc1ccc(C(O)CN2C[C@H]3C[C@@H](Cc4ccccc4)C[C@H]3C2)cc1F (mixture of isomers) [Example 301, rac-4-{2-[(3aR,5S,6aS)-5-benzyl-octahydrocyclopenta[c]pyrrol-2-yl]-1-hydroxyethyl}-2-fluorophenol]
IC50 [1]: 12.2 nM

Compound: OC(CN1C[C@@H]2C[C@@](O)(Cc3ccccc3)C[C@@H]2C1)c1cccc(C(F)(F)F)c1 (mixture of isomers) [Example 288, rac-(3aR,5r,6aS)-benzyl-2-(2-hydroxy-2-(3-(trifluoromethyl)phenyl)ethyl)octahydrocyclo-penta[c]pyrrol-5-ol]
IC50 [2]: > 10000 nM | IC50 [1]: ≥ 10000 nM

Compound: Cc1ccc(C[C@]2(O)C[C@H]3CN(CC(=O)c4ccc(O)cc4)C[C@H]3C2)cc1 [Example 179]
IC50 [2]: < 100 nM

Compound: CC(C(=O)c1ccc(O)cc1)N1C[C@@H]2C[C@@](O)(Cc3ccccc3)C[C@@H]2C1 (mixture of isomers) [Example 293, rac-2-((3aR,5r,6aS)-5-benzyl-5-hydroxyhexahydrocyclo-penta[c]pyrrol-2(1H)-yl)-1-(4-hydroxyphenyl)propan-1-one]
IC50 [1]: 100 nM

Compound: COc1ccc(NC(=O)N2C[C@@H]3C[C@@](O)(c4ccccc4C)C[C@@H]3C2)cc1 [Example 8]
IC50 [2]: > 10000 nM | IC50 [1]: ≥ 10000 nM

Compound: Oc1cnc(C(O)CN2C[C@@H]3C[C@@](O)(Cc4ccccc4)C[C@@H]3C2)cn1 (mixture of isomers) [Example 188, rac-(3aR,5r,6aS)-5-benzyl-2-(2-hydroxy-2-(5-hydroxypyrazin-2-yl)ethyl)octahydrocyclo-penta[c]pyrrol-5-ol]
IC50 [2]: > 10000 nM | IC50 [1]: ≥ 10000 nM

Compound: OC(CN1C[C@@H]2C[C@@](O)(c3ccc(F)cc3)C[C@@H]2C1)c1ccc(Cl)cc1Cl (mixture of isomers) [Example 76, rac-2-[2-(2,4-dichlorophenyl)-2-hydroxyethyl]-5-(4-fluorophenyl)-octahydrocyclopenta[c] pyrrol-5-ol]
IC50 [2]: > 10000 nM | IC50 [1]: ≥ 10000 nM

Compound: COc1cccc([C@]2(O)C[C@H]3CN(CC(O)c4cccc(F)c4)C[C@H]3C2)c1 (mixture of isomers) [Example 63, rac-2-[2-(3-fluorophenyl)-2-hydroxyethyl]-5-(3-methoxyphenyl)-octahydrocyclopenta[c] pyrrol-5-ol]
IC50 [2]: > 10000 nM | IC50 [1]: ≥ 10000 nM

Compound: OC(CN1C[C@@H]2C[C@@](O)(c3ccc(F)cc3)C[C@@H]2C1)c1cccc(C(F)(F)F)c1 (mixture of isomers) [Example 75, rac-5-(4-fluorophenyl)-2-{2-hydroxy-2-[3-(trifluoromethyl)phenyl]ethyl}-octahydrocyclopenta[c] pyrrol-5-ol]
IC50 [2]: > 10000 nM | IC50 [1]: ≥ 10000 nM

Compound: CO[C@@]1(Cc2ccccc2)C[C@H]2CN(CC(O)c3ccc(O)cn3)C[C@H]2C1 (mixture of isomers) [Example 177, rac-6-(2-((3aR,5r,6aS)-5-benzyl-5-methoxyhexahydrocyclo-penta[c]pyrrol-2(1H)-yl)-1-hydroxyethyl)pyridin-3-ol]
IC50 [1]: 31.6 nM

Compound: Oc1ccc(C(O)CN2C[C@H]3CC(Cc4ccccc4)C[C@H]3C2)nc1 (mixture of isomers) [Example 298, rac-6-(2-{5-benzyl-octahydrocyclopenta[c]pyrrol-2-yl}-1-hydroxyethyl)pyridin-3-ol]
IC50 [1]: 22.4 nM

Compound: Oc1cnc(C(O)CN2C[C@@H]3C[C@@](O)(Cc4ccccc4)C[C@@H]3C2)nc1 (mixture of isomers) [Example 203, rac-2-{2-[(3aR,5R,6aS)-5-benzyl-5-hydroxy-octahydrocyclopenta[c]pyrrol-2-yl]-1-hydroxyethyl}pyrimidin-5-ol]
IC50 [2]: 1000 to 10000 nM | IC50 [1]: 3400 nM

Compound: Cc1ccccc1[C@]1(O)C[C@H]2CN(C(=O)Nc3ccc(F)cc3)C[C@H]2C1 [Example 13]
IC50 [2]: > 10000 nM | IC50 [1]: ≥ 10000 nM

Compound: COc1cccc(C(O)CN2C[C@H]3C[C@@H](c4ccccc4)C[C@H]3C2)c1 (mixture of isomers) [Example 117, rac-1-(3-methoxyphenyl)-2-{5-phenyl-octahydrocyclopenta[c]pyrrol-2-yl}ethan-1-ol]
IC50 [2]: > 10000 nM | IC50 [1]: ≥ 10000 nM

Compound: Oc1ccc(C(O)CN2C[C@H]3C[C@H](Cc4ccccc4)C[C@H]3C2)cc1F (mixture of isomers) [Example 302, rac-4-{2-[(3aR,5R,6aS)-5-benzyl-octahydrocyclopenta[c]pyrrol-2-yl]-1-hydroxyethyl}-2-fluorophenol]
IC50 [1]: 20.1 nM

Compound: CC(C(=O)c1ccc(O)cc1)N1C[C@@H]2C[C@@](O)(c3ccc(C(C)(C)C)cc3)C[C@@H]2C1 (mixture of isomers) [Example 93, rac-2-[5-(4-tert-butylphenyl)-5-hydroxy-octahydrocyclopenta[c]pyrrol-2-yl]-1-(4-hydroxyphenyl)propan-1-one]
IC50 [2]: > 10000 nM | IC50 [1]: ≥ 10000 nM

Compound: OC(CN1C[C@@H]2C[C@@](O)(Cc3ccccc3)C[C@@H]2C1)c1cnc(OCc2ccccc2)cn1 (mixture of isomers) [Example 163, rac-(3aR,5r,6aS)-5-benzyl-2-(2-(5-(benzyloxy)pyrazin-2-yl)-2-hydroxyethyl)octahydro-cyclopenta[c]pyrrol-5-ol]
IC50 [2]: > 10000 nM | IC50 [1]: ≥ 10000 nM

Compound: COc1ccccc1CNC(=O)N1C[C@@H]2C[C@@](O)(c3ccccc3)C[C@@H]2C1 [Example 21, 5-hydroxy-N-[(2-methoxyphenyl)methyl]-5-phenyl-octahydrocyclopenta[c] pyrrole-2-carboxamide]
IC50 [2]: > 10000 nM

Compound: OC(CN1C[C@H]2CC(Cc3ccccc3)C[C@H]2C1)c1cccc(C(F)(F)F)c1 (mixture of isomers) [Example 309, rac-2-((3aR,6aS)-5-benzylhexahydrocyclo-penta[c]pyrrol-2(1H)-yl)-1-(3-(trifluoromethyl)phenyl) ethanol]
IC50 [2]: > 10000 nM | IC50 [1]: ≥ 10000 nM

Compound: Oc1ccc(C(O)CN2C[C@@H]3C[C@@](O)(Cc4ccccc4)C[C@@H]3C2)nc1F (mixture of isomers) [Example 191, rac-(3aR,5r,6aS)-5-benzyl-2-(2-(6-fluoro-5-hydroxypyridin-2-yl)-2-hydroxyethyl)octahydro-cyclopenta[c]pyrrol-5-ol]
IC50 [1]: 171 nM

Compound: Oc1ccc(C(O)CN2C[C@H]3CN(Cc4ccccc4)C[C@H]3C2)cc1F (mixture of isomers) [Example 341, rac-4-(2-(5-benzylhexahydropyrrolo [3,4-c]pyrrol-2(1H)-yl)-1-hydroxyethyl)-2-fluorophenol]
IC50 [2]: < 100 nM | IC50 [1]: 74.3 nM

Compound: O=c1[nH]c2ccc(C(O)CN3C[C@@H]4C[C@@](O)(Cc5ccccc5)C[C@@H]4C3)cc2o1 (mixture of isomers) [Example 154, rac-6-(2-((3aR,5r,6aS)-5-benzyl-5-hydroxyhexahydrocyclo-penta[c]pyrrol-2(1H)-yl)-1-hydroxyethyl)benzo[d] oxazol-2(3H)-one]
IC50 [1]: 52.4 nM

Compound: O=C(Nc1cccnc1)N1C[C@@H]2C[C@@](O)(c3ccc(F)cc3)C[C@@H]2C1 [Example 41]
IC50 [2]: > 10000 nM | IC50 [1]: ≥ 10000 nM

Compound: CC(C)(O)c1ccc(C(=O)CN2C[C@@H]3C[C@@](O)(c4ccccc4)C[C@@H]3C2)cc1 [Example 68, 2-(5-hydroxy-5-phenylhexahydrocyclo-penta[c]pyrrol-2(1H)-yl)-2-(4-(2-hydroxypropan-2-yl)phenyl)ethanone]
IC50 [2]: > 10000 nM

Now from value to molecule:

IC50 [2]: < 100 nM | IC50 [1]: 23.8 nM
Compound: Oc1ccc(C(O)CN2C[C@@H]3C[C@@](O)(Cc4ccc(F)cc4F)C[C@@H]3C2)cc1 (mixture of isomers) [Example 245, rac-5-(2,4-difluorobenzyl)-2-(2-hydroxy-2-(4-hydroxyphenyl)ethyl) octahydrocyclopenta[c] pyrrol-5-ol]

IC50 [1]: 566 nM
Compound: Cc1cc(C)cc(C[C@]2(O)C[C@H]3CN(CC(O)c4ccc(O)cc4)C[C@H]3C2)c1 (mixture of isomers) [Example 213, rac-(3aR,5R,6aS)-5-[(3,5-dimethylphenyl)methyl]-2-[2-hydroxy-2-(4-hydroxyphenyl)ethyl]-octahydrocyclopenta[c] pyrrol-5-ol]

IC50 [2]: 100 to 1000 nM | IC50 [1]: 139 nM
Compound: Oc1ccc(C(O)CN2C[C@H]3CN(Cc4ccccc4)C[C@H]3C2)cc1 (mixture of isomers) [Example 327, rac-4-(2-(5-benzylhexahydropyrrolo [3,4-c]pyrrol-2(1H)-yl)-1-hydroxyethyl)phenol]

IC50 [1]: 84.8 nM
Compound: Oc1ccc(C(O)CN2C[C@@H]3C[C@@](O)(Cc4ccc(C(F)(F)F)cc4)C[C@@H]3C2)cc1 (mixture of isomers) [Example 224, rac-(3aR,5R,6aS)-2-[2-hydroxy-2-(4-hydroxyphenyl)ethyl]-5-{[4-(trifluoromethyl)phenyl]methyl}-octahydrocyclopenta[c] pyrrol-5-ol]

IC50 [1]: 31.5 nM
Compound: Oc1ccc(C(O)CN2C[C@@H]3C[C@@](O)(Cc4ccc(F)c(F)c4)C[C@@H]3C2)cc1 (mixture of isomers) [Example 253, rac-(3aR,5r,6aS)-5-(3,4-difluorobenzyl)-2-(2-hydroxy-2-(4-hydroxyphenyl)ethyl) octahydrocyclopenta[c] pyrrol-5-ol]

IC50 [2]: < 100 nM | IC50 [1]: 16.8 nM
Compound: Oc1ccc(C(O)CN2C[C@H]3C[C@@H](Cc4ccccc4)C[C@H]3C2)cc1 (mixture of isomers) [Example 304, rac-4-{2-[(3aR,5S,6aS)-5-benzyl-octahydrocyclopenta[c]pyrrol-2-yl]-1-hydroxyethyl}phenol]

IC50 [1]: 34.9 nM
Compound: Cc1ccccc1C[C@]1(O)C[C@H]2CN(CC(O)c3ccc(O)cc3)C[C@H]2C1 (mixture of isomers) [Example 185, rac-(3aR,5r,6aS)-2-(2-hydroxy-2-(4-hydroxyphenyl)ethyl)-5-(2-methylbenzyl)octahydro-cyclopenta[c]pyrrol-5-ol]

IC50 [2]: > 10000 nM | IC50 [1]: ≥ 10000 nM
Compound: Oc1ccc(C(O)CN2C[C@@H]3C[C@@](O)(c4ccccc4)C[C@@H]3C2)cc1 (mixture of isomers) [Example 67, rac-2-[2-hydroxy-2-(4-hydroxyphenyl)ethyl]-5-phenyl-octahydrocyclopenta[c] pyrrol-5-ol]

IC50 [2]: < 100 nM | IC50 [1]: 15.5 nM
Compound: Oc1ccc(C(O)CN2C[C@@H]3C[C@@](O)(Cc4ccccc4F)C[C@@H]3C2)cc1 (mixture of isomers) [Example 229, rac-(3aR,5r,6aS)-5-(2-fluorobenzyl)-2-(2-hydroxy-2-(4-hy-droxyphenyl)ethyl)octa-hydrocyclopenta[c] pyrrol-5-ol]

IC50 [1]: 22.1 nM
Compound: Oc1ccc(C(O)CN2C[C@@H]3C[C@@](O)(Cc4ccc(F)cc4)C[C@@H]3C2)cc1F (mixture of isomers) [Example 171, rac-(3aR,5r,6aS)-2-(2-(3-fluoro-4-hydroxyphenyl)-2-hydroxyethyl)-5-(4-fluorobenzyl)octahydro-cyclopenta[c]pyrrol-5-ol]
